According to ChEMBL document CHEMBL1151996, “Structure-activity relationships of anti-HIV-1 N-alkoxy- and N-allyloxy-benzimidazoles” (Bioorg Med Chem Lett, 1997):

How the values were obtained:
C8166 [1] = test: Compound was evaluated for its cytotoxicity against C8166 cell line; type: functional; settings: Homo sapiens, read-out: TC50 (the source's name)
C8166 [2] = test: Tested against HIV-1 […] for Inhibition of viral replication by determining reduction of syncytia formation and antigen gp120 in C8166 cells, estimated by ELISA; type: functional, cell-based; settings: Homo sapiens

SMILES	CC50 (C8166 [1])	EC50 (C8166 [2])
COc1ccc2nc(C=C(C)C)n(OCC=C(C)C)c2c1	80 µM	16 µM
CCCCOn1c(CCC)nc2c(C)cccc21	–	0.5 µM
Cc1cn([C@H]2C[C@H](N=[N+]=[N-])[C@@H](CO)O2)c(=O)[nH]c1=O [ZIDOVUDINE]	> 1000 µM	–
CCCCCOn1c(CCCC)nc2c(C)cccc21	–	8 µM
CCCCCCCOn1c(CCCCCC)nc2c(C)cccc21	–	40 µM
CCOn1c(C)nc2c(C)cccc21	–	8 µM
CC(C)=CCOn1c(C=C(C)C)nc2ccc(C)cc21	50 µM	10 µM
CC(C)=CCN1Cc2cc(Cl)cc3[nH]c(=S)n(c23)C[C@@H]1C	62 µM	–
C=CCOn1c(C=C)nc2ccc(C)cc21	20 µM	16 µM
C=CCOn1c(C=C)nc2c(C)cccc21	16 µM	16 µM
C=CCOn1c(C=C)nc2ccc(OC)cc21	80 µM	80 µM
CC(C)=CCOn1c(C=C(C)C)nc2c(C)cccc21	50 µM	10 µM
